According to patent US20130115294A1, “STABLE LIQUID OILY READY-TO-USE FORMULATIONS, PREPARATION THEREOF AND USE THEREOF” (CTS CHEMICAL INDUSTRIES LTD., priority 2010, published 2013):
Structures can show the parent of a compound that is named as a salt. Where two headings read alike, the source gives them in different places.

Assay: Caco-2 cell monolayer uptake and apparent permeability
Format: in vitro ADME
Conditions: human
Protocol: Caco-2 monolayer were grown in Dulbecco's modified Eagle's medium supplemented with 10% fetal bovine serum, 1% L-glutamine, 1% nonessential amino acids, and 5% antibiotic-antimycotic solution at 37° C. in humidified air, 5% CO2 atmosphere. The culture medium was replaced every 96 h. The uptake studies were conducted with monolayers (passages 73 to 79) in wells of 2 cm^2 which reach confluency following 4 days of incubation in culture. Prior to the experiments, the culture medium was replaced with transport medium and cell monolayers were subsequently equilibrated for 30 min at 37° C. before the uptake study. The transport medium was Hanks buffer composed of 136.89 mM NaCl, 5.36 mM KCl, 0.34 mM Na2HPO4, 0.44 mM KH2PO4, 0.41 mM MgSO4 7H2O, 19.45 mM glucose, 1.26 mM CaCl2, 0.49 mM MgCl2 6H2O, 4.17 mM NaHCO3, 10 mM HEPES, and the pH was adjusted to 7.4.
The powder (10 mg equivalent to 1 mg enalapril maleate) was weighted dispersed and fully dissolved in 1 ml Hanks buffer. 25 μl from this solution were placed in Caco-2 wells with 975 μl of Hanks buffer resulting in a final concentration of 25 μg/ml of enalapril maleate.
A 100 μl of parent CTS oil formulation was withdrawn and diluted with soybean oil USP to give 1 mg/ml of enalapril maleate.
A 25 μl of the diluted oil solution was placed into the transport medium to give a 25 μg/ml of enalapril maleate in each well (dilution 1:40).
All the uptake experiments were performed over 3 hours at 37° C. Following incubation the transport medium was collected in clean tubes stored at −80° C. up to the quantitative determination of the enalapril levels by HPLC (The HPLC method was provided by CTS). Regarding the cell monolayer in the wells, 1 ml of 0.2% SDS was added to each well to elicit lysis of the cell monolayer. The lysate were collected in a clean tube and enalapril was determined by CTS HPLC technique. […]

## CCOC(=O)[C@H](CCc1ccccc1)N[C@@H](C)C(=O)N1CCC[C@H]1C(=O)O [ENL-solution, enalapril maleate]
Caco-2, pH 7.4, 25 μg/ml enalapril maleate, no intestinal juice, read-out: apparent permeability (Papp)
  Papp at 3 h, 25 μg/ml: 251 ± 5 nm/s
Caco-2, pH 7.4, printed values are Papp multiplied by 10^6, 25 μg/ml enalapril maleate, 37° C., Hanks buffer pH 7.4, + 0.1% intestinal juice (IJ), read-out: Papp × 10^6 (cm/s) ± s.d
  Papp at 3 h, 25 μg/ml: 252 ± 48.1 nm/s
Caco-2, pH 7.4, printed values are Papp multiplied by 10^6, 25 μg/ml enalapril maleate, 37° C., Hanks buffer pH 7.4, no intestinal juice, read-out: Papp × 10^6 (cm/s) ± s.d
  Papp at 3 h, 25 μg/ml: 251 ± 29.3 nm/s
